The results in this text go back to patent publication US20190209548A1, “LINKED DIARYL COMPOUNDS WITH ANTICANCER PROPERTIES AND METHODS OF USING THE SAME” (University of Maryland, College Park, priority 2014, published 2019).

Test [1] concerns c-kit1. Kind of test: NMM displacement assay. Particulars: NMM 1 μM, ligand 0-200 μM. The format is binding. How it is done: Displacement assays with the G-quadruplex binder, NMM. In these assays, the triazene ligand was used at various concentrations: 0, 5, 10, 20, 50, 100, and 200 μM; and the DNA concentration was kept at 1 μM, whereas the concentration of NMM was 1 μM. The experiments were performed in 50 mM Tris-HCl buffer (pH 7.5) in the presence of 50 mM KCl. The excitation wavelength used for NMM was 400 nm and the emission was monitored between 550 and 700 nm (slit width=5 nm, scan speed=600 nm/min, averaging time=0.1 sec, data interval=1 nm, PMT detector voltage=600 V, measurement temperature=20° C.). The sample was initially heated to 95° C. and kept at this temperature for 5 min without ligand or NMM and then cooled down to room temperature for 15 min. Subsequently, the triazene ligand was added to the DNA and incubated for ˜12 h.

The subject of test [2] is 24mer WT c-myc. The experiment in a line: CD titration with c-myc G-quadruplex. Particulars: K+ Tris buffer. The format is binding. How it is done: (§1) Circular Dichroism (CD). CD titration experiments were performed with an Olis DSM-20 spectropolarimeter (Bogart, Ga.). All measurements were done at 25° C. using a 1 cm quartz cuvette and covering a spectral range of 220-420 nm. […] Stock solutions of the ligand were added in small amount to reach a molar ratio of 1:1, 3:1, 6:1, and 10:1 of ligand per equivalence of DNA.

Test [3] concerns hTel22. Kind of test: CD titration with hTel22. The format is binding, human. Particulars: K+ Tris buffer. How it is done: as §1
For test [4], the system named is hTel22. The experiment in a line: ESI mass spectrometry of hTel22 with excess ligand. The format is binding, human. Particulars: free DNA present even in excess ligand. How it is done:
Electrospray Ionization Mass Spectrometry. ESI-MS experiments were carried out on a Bruker MicrOTOFQ mass spectrometer. Data acquisition was set to operate in negative ion mode. All experiments were performed in 50 mM ammonium acetate buffer containing 20% HPLC grade methanol and adjusted with 1 N KOH solution to reach pH of 7.0. The WT hTel 22-mer G-quadruplex sample was prepared at a concentration of approximately 10 μM in the ammonium acetate buffer and was exhaustedly dialyzed. Stock solutions of DMZ and Triazene-1 were prepared in the final dialysate buffer at concentration as high as 300 μM. The ESI-MS samples were prepared by mixing the DNA and ligand stock solutions to yield a mixture containing excess of each ligand per equivalence of DNA. The MS capillary voltage was set to +3500 V, dry N2 gas flow was adjusted to 0.5 L/min at 110° C., and the G-quadruplex/ligand samples were directly infused into the MS by using a kD Scientific syringe pump set to a flow rate of 200 μL/hour. Data processing was performed by using Bruker Daltonics Data Analysis program.

Test [5] has as its system c-MYC G-quadruplex. Kind of test: FRET melting in competition with duplex DNA. The format is binding. Particulars: 1 μM ligand, 0.2 μM c-MYC, up to 500 equivalence of double-stranded DNA. How it is done: FRET DNA melting in competition with duplex DNA. FRET competition assay was performed by adding 2 μM, 20 μM and 100 μM double-stranded competitor 26ds DNA (5′-CAATCGGATCGAATTCGATCCGATTG-3′) (SEQ ID NO: 16) in the presence of 0.2 μM c-MYC G-quadruplex and 1 μM DMZ analogs. Both c-MYC G-quadruplex and 26ds DNA were diluted in 60 mM potassium cacodylate buffer (pH 7.2) and then annealed by heating at 85° C. for 10 min followed by cooling to room temperature in the heating block. Experiments were performed in triplicate.

As for `N=C(N)c1ccc(/N=N/Nc2ccc(C(=N)N)cc2)cc1` [DMZ, Diminazene aceturate, reference compound], the “competition with NMM for c-kit1 binding” value in test [1] is “could indeed compete with NMM for c-kit1 binding”. In test [2], the “CD signal of G-quadruplex upon complexation” value is recorded as “dramatically decreased”. Moreover, in test [3], the “effect on structure of G-quadruplex (CD)” value is reported as “very little effect on the structure”.

For the molecule `N=C(N)c1ccc(NN=Nc2ccccc2)cc1` [DMZ1], the “binding affinity in words” value in test [4] is given as “low binding affinity”. Further, in test [5], the “effect of competitor double-stranded DNA on Tm of c-MYC” value was “did not affect the Tm of c-MYC”.
